Test results from PMC13538185, “The PSD-95 inhibitor NA-1 is delivered to the brain upon nasal administration with uptake into the olfactory bulb improved by co-administration with the cell-penetrating peptides lowPro and Tat” (Drug Delivery and Translational Research, 2025).

Assays:
[1] = tested on: primary porcine olfactory epithelial monolayers; conditions: ALI 20-21 days, apical to basolateral, 0.5 mg/mL in transport medium (MEM, 0.05% BSA), 37 °C, fluorescence read-out, mean (N = 3-4, n = 3)
Experimental: Transport studies were performed on olfactory epithelial cell monolayers cultured for 20 or 21 days under ALI conditions. […] 50 µL samples were withdrawn at time points 0.5, 1, 1.5, 2, 3, 4, and 24 h into black clear-bottom 96-well plates. The sampling volume was immediately replaced with 37 °C transport medium. […] The experiments with NA-1 and the cell-penetrating peptides were initiated by gently applying 300 µL samples (50 µM NA-1 alone or co-administered with 50 µM Tat, LowPro, or PenShuf) in 37 °C transport buffer to the apical compartment. 75 µL samples were withdrawn at time points 1, 2, 3, and 16 h into glass vials. The sampling volume was immediately replaced with 37 °C transport buffer. NA-1 was labelled with selenomethionine (M^Se) between the Tat and the NR2B9c moiety to facilitate analysis through selenium quantification using inductively coupled plasma mass spectrometry (ICP-MS). For selenium analysis, the samples were subjected to flow injection analysis on a Dionex Ultimate 3000 UPLC (Thermo Fischer Scientific, Germering, Germany) with ICP-MS detection using an Agilent 8800 Triple Quad equipped with a 2.5 mm quartz torch with platinum sampler -and skimmer cones (Agilent Technologies, Santa Clara, CA, USA).

[2] = tested on: primary porcine olfactory epithelial cells; experiment: Cellular metabolic activity (XTT assay); type: cell-based; conditions: 4 h incubation with 50 or 100 µM peptide in transport medium, 37 °C, N = 3, n = 3
Experimental: The cellular metabolic activity was assessed on olfactory epithelial cells cultured in a 96-well plate for 48 h using a commercially available sodium 3´-[1-(phenylaminocarbonyl)-3,4-tetrazolium]-bis (4-methoxy-6-nitro) benzene sulfonic acid hydrate (XTT) assay as directed by the manufacturer. […] Cells incubated with transport medium (MEM w/o phenol red, 0.05% BSA, 0.1 U/mL Penicillin, 0.1 µg/mL Streptomycin) without peptides served as live cell controls and wells with transport medium but no cells served as dead cell controls. After peptide incubation, the cells were gently washed twice with transport medium before incubation with 100 µL transport medium and 50 µL XTT labelling mixture (electron-coupling reagent: XTT labelling reagent 1:50) for 1 h at 37 °C with horizontal shaking (90 rpm). Samples (100 µL) from each well were transferred to a new 96-well plate and the absorbance was measured at 466 nm using a SPECTROstar Nano plate reader (BMG Labtech, Ortenberg, Germany). The relative cellular viability was calculated by Eq. 1:1

[3] = tested on: primary porcine olfactory epithelial monolayers; experiment: Transport of NA-1 alone or co-administered with cell-penetrating peptides across primary porcine olfactory epithelial monolayers (ICP-MS of selenium); type: in vitro ADME
Description: Oxygen was applied as reaction gas.

NMRI mice [4] = conditions: nasal
[5] = not given; remark: listed apart in the source
[6] = not given; remark: listed apart in the source
[7] = Biodistribution after intravenous bolus injection to mice (reference group); conditions: mouse, in vivo, iv, 3 nmol/g body weight
Experimental: (§1) In an intravenous reference group, NA-1 was administered as a bolus injection (3 nmol/g body weight in 0.9% NaCl) into the tail vein. After 60 min compound circulation, the animals were transcardially perfused with 0.01 M PBS (pH 7.4). The brain, olfactory bulb, heart, lungs, spleen, kidneys, liver, and 2–3 cm of the upper part of duodenum were collected in 2 mL tubes and stored at -70 °C until analysis. […] The homogenate was spun down for 10 min at 14,000 rpm and 4 °C in a Sigma 1–15 K centrifuge (DJB Labcare, Newport Pagnell, England). […] Biodistribution of NA-1 was assessed by measuring the selenium content in tissue digested in HNO3 for 3–5 days at room temperature (50 mg tissue per 0.5 mL HNO3 for heart, lungs, spleen, kidney, and duodenum or 0.2 mL HNO3 for olfactory bulb and 1 mL HNO3 for the remaining brain. The tissue samples were spun down for 5 min at 10,000 rpm in a Sigma 1–15 K centrifuge (DJB Labcare, Newport Pagnell, England) before dilution (1:5–1:32) in 5% methanol with 0.1% trifluoroacetic acid in ultrapure water. The samples were analyzed with ICP-MS as described for transport studies, but with a 20 µL injection volume and a 2 min run time.

NMRI mice [8] = experiment: as above; conditions: mice, 3 nmol/g, 1 h
Experimental: as §1

[9] = tested on: primary porcine olfactory epithelial monolayers; experiment: Transepithelial electrical resistance (TEER) before and after peptide incubation; type: cell-based; conditions: 100 µM peptide, 3 h incubation, N = 3, n = 2
Description: Thereafter, the cells were equilibrated to RT prior measuring the TEER with a chopstick electrode or in an Endohm-24 cup connected to an Epithelial Volt/Ohm meter (both World Precision Instruments, Sarasota, FL, USA). The measured TEER values were subtracted the resistance across an empty Transwell insert and multiplied with the area of the insert (0.33 cm^2) to obtain the standardized unit Ω⋅cm^2.

[10] = NA-1 alone, 3 nmol/g body weight, 1 h after administration, perfused, ICP-MS of selenium, mean (N = 4-6)

Compound: O=C([O-])c1ccccc1-c1c2ccc(=O)cc-2oc2cc([O-])ccc12.[Na+].[Na+] [sodium fluorescein]
- Fraction of applied compound permeated the barrier upon 24 h of incubation [1]: 29.3%

Compound: N=C(N)NCCC[C@H](NC(=O)[C@H](CCCNC(=N)N)NC(=O)[C@H](CCCNC(=N)N)NC(=O)[C@H](CCC(N)=O)NC(=O)[C@H](CCCNC(=N)N)NC(=O)[C@H](CCCNC(=N)N)NC(=O)[C@H](CCCCN)NC(=O)[C@H](CCCCN)NC(=O)[C@H](CCCNC(=N)N)NC(=O)CNC(=O)[C@@H](N)Cc1ccc(O)cc1)C(=O)O [Tat]
- Cellular metabolic activity relative to cell culture media controls [2]: slight decrease

Compound: CC[C@H](C)[C@H](NC(=O)[C@H](CO)NC(=O)[C@H](CO)NC(=O)[C@H](CC(C)C)NC(=O)[C@H](CCCCN)NC(=O)[C@H](CC[Se]C)NC(=O)[C@@H](CCCNC(=N)N)NC(=O)[C@@H](CCCNC(=N)N)NC(=O)[C@@H](CCCNC(=N)N)NC(=O)[C@@H](CCC(N)=O)NC(=O)[C@@H](CCCNC(=N)N)NC(=O)[C@@H](CCCNC(=N)N)NC(=O)[C@@H](CCCCN)NC(=O)[C@@H](CCCCN)NC(=O)[C@@H](CCCNC(=N)N)NC(=O)CNC(=O)[C@H](N)Cc1ccc(O)cc1)C(=O)N[C@@H](CCC(=O)O)C(=O)N[C@@H](CO)C(=O)N[C@@H](CC(=O)O)C(=O)N[C@H](C(=O)O)C(C)C [NA-1]
- Effect of co-administration with PenShuf on barrier permeation of NA-1 at the 16 h time-point ([3]; 50 µM NA-1 + 50 µM PenShuf vs NA-1 alone, 16 h, ICP-MS, N = 6, p < 0.0001 one-way ANOVA): significantly improved
- Fold better permeation potential of NA-1 compared to 4 KDa FITC-dextran ([3]; ratio of Papp values across primary porcine olfactory monolayers): 3.2 fold
- Rank order of off-target tissue distribution (NMRI mice [4]; 3 nmol/g, 1 h, not affected by co-administration with the cell-penetrating peptides): kidney > liver > spleen > duodenum > lung > heart
- NA-1 accumulation in the olfactory bulb, co-administered with LowPro (NMRI mice [4]; NA-1:LowPro 1:1 molar ratio, 3 nmol/g, 1 h, ICP-MS, mean (N = 4-6)): 2.98 % administered dose/g
- NA-1 accumulation in the olfactory bulb, co-administered with PenShuf (NMRI mice [4]; NA-1:PenShuf 1:1 molar ratio, 3 nmol/g, 1 h, ICP-MS, mean (N = 4-6)): 1.63 % administered dose/g
- NA-1 accumulation in the olfactory bulb, co-administered with Tat (NMRI mice [4]; NA-1:Tat 1:1 molar ratio, 3 nmol/g, 1 h, ICP-MS, mean (N = 4-6)): 2.13 % administered dose/g
- NA-1 accumulation in the olfactory bulb (NMRI mice [4]; [10]): 1.38 % administered dose/g
- NA-1 accumulation in the remaining brain (NMRI mice [4]; [10]): 0.54 % administered dose/g
- Combined amount of NA-1 reaching the olfactory bulb and the brain (NMRI mice [4]; NA-1 alone, 1 h, p = 0.15 vs intravenous control): 1.92 % of administered dose/g
- apparent permeability (Papp) of NA-1 co-administered with LowPro (× 10^− 6 cm/sec): 0.22
- apparent permeability (Papp) of NA-1 co-administered with PenShuf (× 10^− 6 cm/sec) [5]: 0.8
- apparent permeability (Papp) of NA-1 co-administered with Tat (× 10^− 6 cm/sec) [6]: 0.09
- tissue uptake at 1 h [7]: 1.57 %ID/g
- Fold higher amount of NA-1 in duodenum, intravenous vs nasal administration (NMRI mice [8]): 4.5 fold
- Fold higher amount of NA-1 in kidneys, intravenous vs nasal administration (NMRI mice [8]): 9.5 fold
- Fold higher amount of NA-1 in lungs, intravenous vs nasal administration (NMRI mice [8]): 2.8 fold
- Fold higher amount of NA-1 in spleen, intravenous vs nasal administration (NMRI mice [8]): 1.6 fold

Compound: RWFKIQMQIRRWKNKK [PenShuf]
- Barrier integrity (TEER before vs after incubation), highest applied concentration [9]: negatively affect the barrier integrity
